Test results taken from PubChem BioAssay (NCI).
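Interpolation was linear, between the two tested concentrations surrounding the appropriate level; five concentrations were tested over 48 hours in 96-well plates. Here, GI50 denotes the concentration required for 50% inhibition of growth. TGI is the concentration that stops growth completely.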

What was measured:
Test in all cases: growth of human tumour cells (NCI), 48 h
786-0 renal = tested on: 786-0 renal
A498 renal = tested on: A498 renal
A549 NSCLC = tested on: A549 NSCLC
ACHN renal = tested on: ACHN renal
BT-549 breast = tested on: BT-549 breast
CAKI-1 renal = tested on: CAKI-1 renal
CCRF-CEM leukemia = tested on: CCRF-CEM leukemia
COLO 205 colon = tested on: COLO 205 colon
DU-145 prostate = tested on: DU-145 prostate
HCC-2998 colon = tested on: HCC-2998 colon
HCT-116 colon = tested on: HCT-116 colon
HCT-15 colon = tested on: HCT-15 colon
HL-60(TB) leukemia = tested on: HL-60(TB) leukemia
HOP-62 NSCLC = tested on: HOP-62 NSCLC
HOP-92 NSCLC = tested on: HOP-92 NSCLC
HS 578T breast = tested on: HS 578T breast
HT29 colon = tested on: HT29 colon
IGROV1 ovarian = tested on: IGROV1 ovarian
K-562 leukemia = tested on: K-562 leukemia
KM12 colon = tested on: KM12 colon
LOX IMVI melanoma = tested on: LOX IMVI melanoma
M14 melanoma = tested on: M14 melanoma
MALME-3M melanoma = tested on: MALME-3M melanoma
MCF7 breast = tested on: MCF7 breast
MDA-MB-231 breast = tested on: MDA-MB-231 breast
MDA-MB-435 = tested on: MDA-MB-435
MOLT-4 leukemia = tested on: MOLT-4 leukemia
NCI-H226 lung = tested on: NCI-H226 lung
NCI-H23 lung = tested on: NCI-H23 lung
NCI-H460 lung = tested on: NCI-H460 lung
NCI-H522 lung = tested on: NCI-H522 lung
NCI/ADR-RES ovarian = tested on: NCI/ADR-RES ovarian
OVCAR-3 ovarian = tested on: OVCAR-3 ovarian
OVCAR-4 ovarian = tested on: OVCAR-4 ovarian
OVCAR-5 ovarian = tested on: OVCAR-5 ovarian
OVCAR-8 ovarian = tested on: OVCAR-8 ovarian
PC-3 prostate = tested on: PC-3 prostate
RPMI-8226 leukemia = tested on: RPMI-8226 leukemia
RXF 393 renal = tested on: RXF 393 renal
SF-268 CNS = tested on: SF-268 CNS
SF-295 CNS = tested on: SF-295 CNS
SF-539 CNS = tested on: SF-539 CNS
SK-MEL-2 melanoma = tested on: SK-MEL-2 melanoma
SK-MEL-28 melanoma = tested on: SK-MEL-28 melanoma
SK-MEL-5 melanoma = tested on: SK-MEL-5 melanoma
SK-OV-3 ovarian = tested on: SK-OV-3 ovarian
SN12C renal = tested on: SN12C renal
SNB-19 CNS = tested on: SNB-19 CNS
SNB-75 CNS = tested on: SNB-75 CNS
SR leukemia = tested on: SR leukemia
SW-620 colon = tested on: SW-620 colon
T-47D breast = tested on: T-47D breast
TK-10 renal = tested on: TK-10 renal
U251 CNS = tested on: U251 CNS
UACC-257 melanoma = tested on: UACC-257 melanoma
UACC-62 melanoma = tested on: UACC-62 melanoma
UO-31 renal = tested on: UO-31 renal

`c1cc(N[C@@H]2CCNC2)nc(-c2cnc3ccc(-c4cn[nH]c4)cn23)c1` was tested, and the GI50 (786-0 renal) was 10.6 µM, the TGI (786-0 renal) was > 83.1 µM and the GI50 (A498 renal) was 7.01 µM. For the same compound, the TGI (A498 renal) was 29 µM, the GI50 (A549 NSCLC) was 22.8 µM and the TGI (A549 NSCLC) was > 100 µM. For the same compound, the GI50 (ACHN renal) was 19.2 µM, the TGI (ACHN renal) was > 100 µM and the GI50 (BT-549 breast) was 3.06 µM. The TGI (BT-549 breast) was 8.32 µM, the GI50 (CAKI-1 renal) was > 47.9 µM and the TGI (CAKI-1 renal) was > 100 µM. For the same compound, the GI50 (CCRF-CEM leukemia) was 3.26 µM, the TGI (CCRF-CEM leukemia) was 14.4 µM and the GI50 (COLO 205 colon) was 3.46 µM. For the same compound, the TGI (COLO 205 colon) was 9.85 µM, the GI50 (DU-145 prostate) was 9.09 µM and the TGI (DU-145 prostate) was > 100 µM. For the same compound, the GI50 (HCC-2998 colon) was 9.95 µM, the TGI (HCC-2998 colon) was 35.5 µM and the GI50 (HCT-116 colon) was 3.43 µM. The TGI (HCT-116 colon) was > 100 µM, the GI50 (HCT-15 colon) was > 100 µM and the TGI (HCT-15 colon) was > 100 µM. The GI50 (HL-60(TB) leukemia) was 22.1 µM, the TGI (HL-60(TB) leukemia) was 66.6 µM and the GI50 (HOP-62 NSCLC) was 6.23 µM. The TGI (HOP-62 NSCLC) was 29.6 µM, the GI50 (HOP-92 NSCLC) was 1.38 µM and the TGI (HOP-92 NSCLC) was 4.51 µM. It also gave a GI50 (HS 578T breast) of 1.69 µM, a TGI (HS 578T breast) of 5.54 µM and a GI50 (HT29 colon) of 12.1 µM. The TGI (HT29 colon) was > 96.8 µM, the GI50 (IGROV1 ovarian) was 5.46 µM and the TGI (IGROV1 ovarian) was 17.6 µM. The GI50 (K-562 leukemia) was 3.63 µM, the TGI (K-562 leukemia) was > 55.6 µM and the GI50 (KM12 colon) was 0.868 µM. It also gave a TGI (KM12 colon) of 51.4 µM, a GI50 (LOX IMVI melanoma) of 3.24 µM and a TGI (LOX IMVI melanoma) of 15.1 µM. The GI50 (M14 melanoma) was 13.7 µM, the TGI (M14 melanoma) was 44.9 µM and the GI50 (MALME-3M melanoma) was 6.98 µM. For the same compound, the TGI (MALME-3M melanoma) was 26.9 µM, the GI50 (MCF7 breast) was 3.31 µM and the TGI (MCF7 breast) was 20.4 µM. For the same compound, the GI50 (MDA-MB-231 breast) was 3.56 µM, the TGI (MDA-MB-231 breast) was 36.1 µM and the GI50 (MDA-MB-435) was 11.2 µM. It also gave a TGI (MDA-MB-435) of 26.7 µM, a GI50 (MOLT-4 leukemia) of 4.39 µM and a TGI (MOLT-4 leukemia) of 51.6 µM. The GI50 (NCI-H226 lung) was 4.13 µM, the TGI (NCI-H226 lung) was > 100 µM and the GI50 (NCI-H23 lung) was 5.07 µM. It also gave a TGI (NCI-H23 lung) of 35.9 µM, a GI50 (NCI-H460 lung) of 16.7 µM and a TGI (NCI-H460 lung) of 80.3 µM. The GI50 (NCI-H522 lung) was 0.916 µM, the TGI (NCI-H522 lung) was 3.55 µM and the GI50 (NCI/ADR-RES ovarian) was > 100 µM. The TGI (NCI/ADR-RES ovarian) was > 100 µM, the GI50 (OVCAR-3 ovarian) was 2.92 µM and the TGI (OVCAR-3 ovarian) was 24.8 µM. The GI50 (OVCAR-4 ovarian) was 2.84 µM, the TGI (OVCAR-4 ovarian) was 9.92 µM and the GI50 (OVCAR-5 ovarian) was 6.06 µM. The TGI (OVCAR-5 ovarian) was > 95.4 µM, the GI50 (OVCAR-8 ovarian) was 6.47 µM and the TGI (OVCAR-8 ovarian) was > 92.8 µM. The GI50 (PC-3 prostate) was 4.99 µM, the TGI (PC-3 prostate) was 47.8 µM and the GI50 (RPMI-8226 leukemia) was 11 µM. For the same compound, the TGI (RPMI-8226 leukemia) was 43.9 µM, the GI50 (RXF 393 renal) was 2.56 µM and the TGI (RXF 393 renal) was 11.7 µM. It also gave a GI50 (SF-268 CNS) of 2.18 µM, a TGI (SF-268 CNS) of 7.1 µM and a GI50 (SF-295 CNS) of 12 µM. For the same compound, the TGI (SF-295 CNS) was > 55 µM, the GI50 (SF-539 CNS) was 1.61 µM and the TGI (SF-539 CNS) was 8.17 µM. The GI50 (SK-MEL-2 melanoma) was 2.55 µM, the TGI (SK-MEL-2 melanoma) was 6.82 µM and the GI50 (SK-MEL-28 melanoma) was 4.35 µM. For the same compound, the TGI (SK-MEL-28 melanoma) was 16.9 µM, the GI50 (SK-MEL-5 melanoma) was 14.1 µM and the TGI (SK-MEL-5 melanoma) was 39.4 µM. The GI50 (SK-OV-3 ovarian) was 7.8 µM, the TGI (SK-OV-3 ovarian) was 68.6 µM and the GI50 (SN12C renal) was 0.795 µM. For the same compound, the TGI (SN12C renal) was 13.4 µM, the GI50 (SNB-19 CNS) was 4.26 µM and the TGI (SNB-19 CNS) was 34.9 µM. For the same compound, the GI50 (SNB-75 CNS) was 1.88 µM, the TGI (SNB-75 CNS) was 5.77 µM and the GI50 (SR leukemia) was 2.37 µM. It also gave a TGI (SR leukemia) of 10.1 µM, a GI50 (SW-620 colon) of 6.83 µM and a TGI (SW-620 colon) of 52.1 µM. The GI50 (T-47D breast) was 2.04 µM, the TGI (T-47D breast) was 9.3 µM and the GI50 (TK-10 renal) was 15.3 µM. The TGI (TK-10 renal) was 62.8 µM, the GI50 (U251 CNS) was 3.11 µM and the TGI (U251 CNS) was 18.3 µM. The GI50 (UACC-257 melanoma) was 16.1 µM, the TGI (UACC-257 melanoma) was 53.3 µM and the GI50 (UACC-62 melanoma) was 5.02 µM. The TGI (UACC-62 melanoma) was 20.3 µM, the GI50 (UO-31 renal) was > 69.3 µM and the TGI (UO-31 renal) was > 100 µM.
